Converted amounts (≈) assume the structure as drawn.
Key:
[1] = tested on: HT-29; assay: Cytotoxicity against human HT-29 cells after 6 days by MTT assay; conditions: HT-29, 144 h, read-out: ED50 (the source's name)
[2] = tested on: KB; assay: Cytotoxicity against human KB cells after 3 days by MTT assay; conditions: 72 h, read-out: ED50 (the source's name)
[3] = tested on: A549; assay: Cytotoxicity against human A549 cells after 6 days by MTT assay; conditions: A549, 144 h, read-out: ED50 (the source's name)
[4] = tested on: P388; assay: Cytotoxicity against mouse P388 cells after 3 days; conditions: P388, 72 h, read-out: ED50 (the source's name)

C/C=C(\CC[C@@H](C)[C@H]1CC[C@H]2[C@@H]3C[C@@H](O)C4=CC(=O)CC[C@]4(C)[C@H]3CC[C@]12C)C(C)C
EC50 [1]: 1.2 µg/mL (≈ 2.81 µM) | EC50 [2]: 4.6 µg/mL (≈ 10.8 µM) | EC50 [3]: 2.3 µg/mL (≈ 5.39 µM) | EC50 [4]: 0.9 µg/mL (≈ 2.11 µM)

C=CC(CC[C@@H](C)[C@H]1CC[C@H]2[C@@H]3CC(=O)C4=CC(=O)CC[C@]4(C)[C@H]3CC[C@]12C)(OO)C(C)C (stereo not given in full)
EC50 [1]: 1.4 µg/mL (≈ 3.07 µM) | EC50 [2]: 4 µg/mL (≈ 8.76 µM) | EC50 [3]: 2.5 µg/mL (≈ 5.47 µM) | EC50 [4]: 0.8 µg/mL (≈ 1.75 µM)

C/C=C(\CC[C@@H](C)[C@H]1CC[C@H]2[C@@H]3CCC4=CC(=O)CC[C@]4(C)[C@H]3CC[C@]12C)C(C)C
EC50 [1]: > 50 µg/mL | EC50 [2]: > 50 µg/mL | EC50 [3]: > 50 µg/mL | EC50 [4]: > 50 µg/mL

C=CC(CC[C@@H](C)[C@H]1CC[C@H]2[C@@H]3C[C@@H](O)C4=CC(=O)CC[C@]4(C)[C@H]3CC[C@]12C)(OO)C(C)C (stereo not given in full)
EC50 [1]: 1.7 µg/mL (≈ 3.71 µM) | EC50 [2]: 1.8 µg/mL (≈ 3.92 µM) | EC50 [3]: 1.8 µg/mL (≈ 3.92 µM) | EC50 [4]: 0.4 µg/mL (≈ 0.872 µM)

C/C=C(\CC[C@@H](C)[C@H]1CC[C@H]2[C@@H]3CC(=O)C4=CC(=O)CC[C@]4(C)[C@H]3CC[C@]12C)C(C)C
EC50 [1]: 0.4 µg/mL (≈ 0.942 µM) | EC50 [2]: 5.9 µg/mL (≈ 13.9 µM) | EC50 [3]: 3.1 µg/mL (≈ 7.3 µM) | EC50 [4]: 0.6 µg/mL (≈ 1.41 µM)
